Values quoted from earlier work as cited in paper PMC3159817 (Journal of chemical information and modeling, 2011).

Columns and labels:
[1] = tested on: RNase H active site of RT with DNA:RNA substrate bound
[2] = tested on: HIV-1 reverse transcriptase Y501 mutants

SMILES | competition with nucleic acid substrate [1] | effect of Y501 mutations on inhibition [2]
CC(C)c1ccc(O)c(=O)c(O)c1 [β-thujaplicinol] | appears unable to compete with the intact nucleic acid substrates | 
CC(C)(C)c1ccc(C(=O)NN=Cc2c(O)ccc3ccccc23)cc1 [BBNH, N-(4-tert-butylbenzoyl)-2-hydroxy-1-naphthaldehyde hydrazone] |  | mutations of Y501 result in resistance to inhibition
